Test results from publication PMC8994671 (ACS infectious diseases, 2017).
Values after ≈ are worked out from the molar mass of the structure shown. Like-named read-outs stand apart in the source and are kept apart here.

Assays:
C. neoformans = experiment: In vitro antifungal susceptibility testing; type: cell-based, Cryptococcus neoformans; details: for MIC: Cryptococcus neoformans, read-out: C. neoformans MIC; for C. neoformans MIC: Table 1, highest value of at least three biological replicates
[1] = system: calmodulin-dependent localization of Crz1; details: assay validation; cited from earlier work
C. albicans [2] = details: cited from earlier work
C. albicans [3] = experiment: In vitro antifungal susceptibility testing; type: cell-based; details: Candida albicans, SC5314, read-out: C. albicans MIC
[4] = system: calmodulin-dependent localization of Crz1; experiment: Crz1 nuclear translocation assay; type: cell-based, Cryptococcus neoformans; details: shift to 37°C

SMILES | MIC (C. neoformans) [µg/mL] | C. neoformans MIC (C. neoformans) [µg/mL] | other results
CN(C)CCCN1c2ccccc2Sc2ccc(Cl)cc21 [Chlorpromazine (3), Chlorpromazine] | 25 (≈ 78.4 µM) |  | 
CCN(CC)CCCCN1c2ccccc2Oc2ccc(Cl)cc21 [Compound 12] |  | 8 | 
C=CC[C@@H]1/C=C(\C)C[C@H](C)C[C@H](OC)[C@H]2O[C@@](O)(C(=O)C(=O)N3CCCC[C@H]3C(=O)O[C@H](/C(C)=C/[C@@H]3CC[C@@H](O)[C@H](OC)C3)[C@H](C)[C@@H](O)CC1=O)[C@H](C)C[C@@H]2OC [FK506] |  |  | Effect on nuclear localization of Crz1 [1]: reduce nuclear localization of Crz1
OC(Cn1cncn1)(Cn1cncn1)c1ccc(F)cc1F [FLU, Fluconazole] |  |  | C. albicans MIC (C. albicans [2]; strain SC5314): 0.25 µg/mL; C. albicans MIC (C. albicans [2]; strain TWO7229): 0.25 µg/mL; C. albicans MIC (C. albicans [2]; strain TWO7230): 2 µg/mL; C. albicans MIC (C. albicans [2]; strain TWO7241): 16 µg/mL; C. albicans MIC (C. albicans [2]; strain TWO7243): 128 µg/mL
OCCN1CCN(CCCN2c3ccccc3Sc3ccc(C(F)(F)F)cc32)CC1 [Fluphenazine (10), Fluphenazine] | 8 (≈ 18.3 µM) | 8 | 
CN1CCN(CCCN2c3ccccc3Sc3ccc(Cl)cc32)CC1 [Prochlorperazine (7), Prochlorperazine] | 64 (≈ 171 µM) |  | 
CN(C)CCCN1c2ccccc2Sc2ccccc21 [Promazine (2), Promazine] | 64 (≈ 225 µM) |  | 
CSc1ccc2c(c1)N(CCC1CCCCN1C)c1ccccc1S2 (stereo not shown) [Thioridazine, THZ (1), Thioridazine] | 16 (≈ 43.2 µM) | 16 | 
CN1CCN(CCCN2c3ccccc3Sc3ccc(C(F)(F)F)cc32)CC1 [Trifluoperazine, TFP (8), Trifluoperazine] | 16 (≈ 39.3 µM) | 16 | MIC (C. albicans [3]): > 32 µg/mL; Effect on Crz1 localization ([4]; higher concentrations than 2 μg/mL, Fig. 1B): reduce localization significantly; Effect on Crz1 localization ([4]; sub-inhibitory concentration 2 μg/mL): fail to affect Crz1 localization; Effect on nuclear localization of Crz1 [1]: reduce nuclear localization of Crz1
CN(C)CCCN1c2ccccc2Sc2ccc(C(F)(F)F)cc21 [Triflupromazine (4), Triflupromazine] | 32 (≈ 90.8 µM) |  | 
CC/C(=C(\c1ccccc1)c1ccc(OCCN(C)C)cc1)c1ccccc1 [tamoxifen] |  |  | Effect on nuclear localization of Crz1 [1]: reduce nuclear localization of Crz1
